This note sets out measurements from US12448383B2, “Compounds and methods for treatment of viral infections” (priority 2022, dated 2025).

SMILES strings stand for the structures. Where two headings read alike, the source gives them in different places.

The subject of data set [1] is Respiratory syncytial virus recombinant with luciferase (RSV-Luc5) in Normal Human Bronchial Epithelial (NHBE) cells. Kind of data set: microbe, parasite or virus in culture. In kind it is cell-based. Particulars: 72 h, read-out: RSV NHBE EC50.
A short description of data set [2]: GI S9 stability - no PMSF. Particulars: pH 7.4; human intestinal S9, PMSF-free; read-out: GIS9-HUMAN-NoPMSF T1/2. In kind it is in vitro ADME. The gist of the method: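 Compounds were incubated at 2 μM with PMSF-free intestinal S9 (1 mg/mL protein) in 100 mM PBS, pH 7.4, sampling at 6 time points over 120 min. Parent disappearance and formation of the nucleoside metabolite Reference Compound A were quantified by LC-MS (Q-Exactive) using analyte/internal standard peak area ratios.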

Another data set in a line: GI S9 stability. In kind it is in vitro ADME. The method, then: Example G: GI S9 Stability
Duplicate aliquots of test compound or positive control substrate (GS-7340) were added to S9 stock diluted with 100 mM phosphate buffered saline, pH 7.4, to obtain a protein concentration of 1.0 mg/mL. The S9 metabolic reactions were initiated by the addition of the substrates to the S9 reaction mixture to a final concentration of 2 μM. At 0, 10, 20, 30, 60 and 120 min, […] aliquots of the reaction mixture were transferred to plates containing […] of IS/Q solution. After quenching, the plates were centrifuged at 3000 g for 30 minutes, and 150 μL aliquots of each supernatant were diluted with 150 μL water. Aliquots ([…]) of the diluted supernatant were analyzed on a Thermo Q-Exactive mass spectrometer as described below. GI S9 Stability—No phenylmethylsulfonyl fluoride (PMSF): Similar to the procedure described above, test compounds were incubated at 2 μM with 1 mg/mL PMSF-free Intestinal S9 fractions. Samples are removed at 6 time points over the course of a 120 min experiment and the parent compound disappreance and reference compound A formation is determined by mass spectrometry.
Example K: Liquid Chromatography/Mass Spectroscopy Methods for S9 and Plasma Stability
Quantification of test compounds, Reference Compound A (S9 stability assay nucleoside metabolite), and controls was performed by analyte/internal standard peak area ratio (PAR) values measured on a Thermo Q-Exactive mass spectrometer coupled to a Dionex UltiMate 3000 HPLC with a Leap Technologies HTC PAL autosampler. The column used for analysis of test compounds and Reference Compound A was a Waters Acquity BEH C18 ([…] particle size, 2.1′50 mm). The column used for control (GS-7340) was a Thermo Hypersil GOLD ([…] particle size, 2.1′50 mm). Mobile phase A consisted of 0.1% (v/v) formic acid in water. Mobile phase B consisted of 0.1% (v/v) formic acid in acetonitrile. Elution of analytes was achieved by a series of linear gradients of acetonitrile in water containing 0.1°(v/v) formic acid. The mass spectrometer was calibrated on a weekly basis and mass tolerance of 5 ppm was used.

The test system of data set [3] is Respiratory syncytial virus recombinant with luciferase (RSV-Luc5) in HEp-2 cells. The data set can be described thus: microbe, parasite or virus in culture. Particulars: human respiratory syncytial virus, HEp-2, 72 h, read-out: RSV Hep2 EC50. The format is cell-based.
Data set [4] in a line: CC50 MT4 cytotoxicity (Cell-Titer Glo). Particulars: human. In kind it is cell-based. The gist of the method:
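Uninfected MT-4 and HEp-2 cells cultured 4-5 days at 37° C with 3-fold serially diluted compound (15 nM to 100,000 nM). Viability read by Cell-Titer Glo luminescence; untreated and 2 μM puromycin wells set 100% and 0%. CC50 from non-linear regression as concentration reducing viability by 50%.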

The next data set can be described thus: Plasma stability. The format is in vitro ADME. Also noted: unit not given here. Particulars: 37° C., 2 μM substrate. In short, it runs like this: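 Reaction mixture was sampled at 0.05, 0.5, 1, 2, 3 and 4 hr into quench solution containing internal standard, then centrifuged and diluted with water. Remaining analyte was measured by LC-MS on a Q-Exactive using a formic acid/acetonitrile gradient, with 5 ppm mass tolerance.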

Data set [5] concerns Caco-2 cells (clone C2BBe1). Kind of data set: CACO-2 permeability. Particulars: for DM Caco2 A to B: apical to basolateral, donor pH 6.5, receiver pH 7.4; for DM Caco2 B to A: basolateral to apical. Details: unit not given here. The format is in vitro ADME. In short, it runs like this: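 Caco-2 monolayers grown 21 days on collagen-coated transwells and checked for integrity by TEER. Donor buffer was HBSS/HEPES/glucose pH 6.5 with 200 μM BNPP; receiver was pH 7.4 with BSA. Compounds were dosed apically or basolaterally for A-to-B and B-to-A transport, with receiver sampling at 1 and 2 h, LC-MS/MS analysis and percent recovery.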

The subject of data set [6] is SARS Coronavirus 2 recombinant with NanoLuc (SARS-CoV2-NLuc) in A549-hACE2 cells. Kind of data set: organism not typed. In kind it is cell-based. Particulars: 48 h; read-out: SARS-CoV2 EC50.

The EC50 is the concentration that produces a half-maximal response. For orientation: CC50 means the concentration that lowers cell viability or growth by half.

For the compound `CC(C)COC(=O)OC[C@H]1O[C@@](C#N)(c2ccc3c(N)ncnn23)[C@H](O)[C@@H]1O` [Compound 1, ((2R,3S,4R,5R)-S-(4-aminopyrrolo[2,1-f][1,2,4]triazin-7-yl)-5-cyano-3,4-dihydroxytetrahydrofuran-2-yl)methyl isobutyl carbonate], the EC50 turned out to be 2180 nM in data set [1], 422 nM in data set [3] and 1870 nM in data set [6]. Also, the half-life at 2 µM stood at 0.0242 h in data set [2] and 1.88 h in “GI S9 stability” (human, s9, pH 7.4). Besides, in data set [4], the CC50 is more than 46400 nM. In “Plasma stability”, the “STA Human Plasma 37” value was 28.434. Besides, the “DM Caco2 A to B” value in data set [5] is 0.275. Also, in data set [5], the “DM Caco2 B to A” value is given as 3.853.

As for `CC(C)COC(=O)Nc1ncnn2c([C@]3(C#N)O[C@H](COC(=O)OCC(C)C)[C@@H](O)[C@H]3O)ccc12` [Compound 2, isobutyl (7-((2R,3R,4S,5R)-2-cyano-3,4-dihydroxy-5-(((isobutoxycarbonyl)oxy)methyl)tetrahydrofuran-2-yl)pyrrolo[2,1-f][1,2,4]triazin-4-yl)carbamate], the figures for the EC50 in data set [1], in data set [3] and in data set [6] were 9600 nM, 6610 nM and more than 50000 nM, respectively. Besides, the half-life at 2 µM in “GI S9 stability” (human, s9, pH 7.4) was determined as 2.61 h. The compound further displayed a CC50 in data set [4] of more than 50000 nM. For the same compound, in “Plasma stability”, the “STA Human Plasma 37” value worked out at 344.3. Moreover, the “DM Caco2 A to B” value in data set [5] turned out to be 1.17. For the same compound, in data set [5], the “DM Caco2 B to A” value is given as 8.69.

Consider `COC(=O)OC[C@H]1O[C@@](C#N)(c2ccc3c(N)ncnn23)[C@H](O)[C@@H]1O` [Compound 5, ((2R,3S,4R,5R)-5-(4-aminopyrrolo[2,1-f][1,2,4]triazine-7-yl)-5-cyano-3,4-dihydroxytetrahydrofuran-2-yl)methyl methyl carbonate], for which the values for the EC50 in data set [1], in data set [3] and in data set [6] were 3550 nM, 2900 nM and 13200 nM, respectively. The half-life at 2 µM in data set [2] is 1.25 h; in “GI S9 stability” (human, s9, pH 7.4), not below 13.2 h. The compound further returned a CC50 in data set [4] of more than 50000 nM. Also, the “STA Human Plasma 37” value in the data set “Plasma stability” worked out at 1388.9.

For the compound `N#C[C@@]1(c2ccc3c(N)ncnn23)O[C@H](COC(=O)Oc2ccccc2)[C@@H](O)[C@H]1O` [Compound 7, ((2R,3S,4R,5R)-5-(4-aminopyrrolo[2,1-f][1,2,4]triazin-7-yl)-5-cyano-3,4-dihydroxytetrahydrofuran-2-yl)methyl phenyl carbonate], the EC50 in data set [1] was 1340 nM; in data set [3] it was 416 nM; in data set [6], 915 nM. Besides, the half-life at 2 µM in “GI S9 stability” (human, s9, pH 7.4) is 0.9 h. The CC50 in data set [4] came out at 47400 nM. Also, the “STA Human Plasma 37” value in the data set “Plasma stability” is recorded as 6.563. Besides, in data set [5], the “DM Caco2 A to B” value is recorded as 0.52. Moreover, the “DM Caco2 B to A” value in data set [5] is reported as 8.98.

Turning to `CCCOC(=O)OC[C@H]1O[C@@](C#N)(c2ccc3c(N)ncnn23)[C@H](O)[C@@H]1O` [Compound 8, ((2R,3S,4R,5R)-5-(4-aminopyrrolo[2,1-f][1,2,4]triazin-7-yl)-5-cyano-3,4-dihydroxytetrahydrofuran-2-yl)methyl propyl carbonate], the EC50 in data set [1] is 1840 nM; in data set [3], 301 nM; in data set [6], 1010 nM. The half-life at 2 µM in data set [2] was 0.00967 h; in the data set “GI S9 stability” (pH 7.4, human intestinal S9, read-out: GIS9 Human T1/2), 2.66 h. Also, the CC50 in data set [4] (uninfected MT-4 cells, 4-5 days, read-out: MT4 CC50) was more than 50000 nM. The “STA Human Plasma 37” value in “Plasma stability” was determined as 11.698.

With `N#C[C@@]1(c2ccc3c(N)ncnn23)O[C@H](COC(=O)OC2CC2)[C@@H](O)[C@H]1O` [Compound 9, ((2R,3S,4R,5R)-5-(4-aminopyrrolo[2,1-f][1,2,4]triazin-7-yl)-5-cyano-3,4-dihydroxytetrahydrofuran-2-yl)methyl cyclopropyl carbonate], the EC50 in data set [1] worked out at 1810 nM; in data set [3], 784 nM; in data set [6], 2280 nM. In the data set “GI S9 stability” (human, s9, pH 7.4), this compound yielded a half-life at 2 µM of 5.19 h. In data set [4], this compound registered a CC50 of more than 50000 nM. Besides, the “STA Human Plasma 37” value in “Plasma stability” came out at 156.68. Besides, the “DM Caco2 A to B” value in data set [5] is given as 0.39. Further, in data set [5], the “DM Caco2 B to A” value amounted to 5.17.

As for `COCCOC(=O)OC[C@H]1O[C@@](C#N)(c2ccc3c(N)ncnn23)[C@H](O)[C@@H]1O` [Compound 10, ((2R,3S,4R,5R)-5-(4-aminopyrrolo[2,1-f][1,2,4]triazine-7-yl)-5-cyano-3,4-dihydroxytetrahydrofuran-2-yl)methyl (2-methoxyethyl) carbonate], the values for the EC50 in data set [1], in data set [3] and in data set [6] were 2990 nM, 3960 nM and 14100 nM, respectively. In addition, in “GI S9 stability” (human, s9, pH 7.4), the half-life at 2 µM is not below 13.2 h. In data set [4], this compound gave a CC50 of more than 50000 nM. In the data set “Plasma stability”, the “STA Human Plasma 37” value came out at 43.569. For the same compound, in data set [5], the “DM Caco2 A to B” value is 0.08. The “DM Caco2 B to A” value in data set [5] turned out to be 1.39.

`N#C[C@@]1(c2ccc3c(N)ncnn23)O[C@H](COC(=O)OC2CCOC2)[C@@H](O)[C@H]1O` (stereo partly drawn) [Compound 11, ((2R,3S,4R,5R)-5-(4-aminopyrrolo[2,1-f][1,2,4]triazin-7-yl)-5-cyano-3,4-dihydroxytetrahydrofuran-2-yl)methyl (tetrahydrofuran-3-yl) carbonate]: the EC50 in data set [1] worked out at 2920 nM; in data set [3] it was 4940 nM; in data set [6] it was 20600 nM. This compound came in with a half-life at 2 µM in “GI S9 stability” (human, s9, pH 7.4) not below 13.2 h. This compound also had a CC50 in data set [4] of more than 50000 nM. In addition, the “STA Human Plasma 37” value in the data set “Plasma stability” came to 135.19.

For the compound `N#C[C@@]1(c2ccc3c(N)ncnn23)O[C@H](COC(=O)OC2CCCC2)[C@@H](O)[C@H]1O` [Compound 12, ((2R,3S,4R,5R)-5-(4-aminopyrrolo[2,1-f][1,2,4]triazin-7-yl)-5-cyano-3,4-dihydroxytetrahydrofuran-2-yl)methyl cyclopentyl carbonate], the results for the EC50 in data set [1], in data set [3] and in data set [6] were 1580 nM, 659 nM and 2350 nM, respectively. This compound also displayed a half-life at 2 µM in “GI S9 stability” (human, s9, pH 7.4) of 0.966 h. Further, in data set [4], the CC50 was more than 50000 nM. In addition, the “STA Human Plasma 37” value in “Plasma stability” came to 35.623. In addition, in data set [5], the “DM Caco2 A to B” value is given as 1.15. In addition, in data set [5], the “DM Caco2 B to A” value turned out to be 13.73.

Regarding `CC(C)COC(=O)OC[C@H]1O[C@@](C#N)(c2ccc3c(N)ncnn23)[C@H](OC(=O)C(C)C)[C@@H]1OC(=O)C(C)C` [Compound 16, (2R,3R,4R,5R)-2-(4-aminopyrrolo[2,1-f][1,2,4]triazin-7-yl)-2-cyano-5-(((isobutoxycarbonyl)oxy)methyl)tetrahydrofuran-3,4-diyl bis(2-methylpropanoate)], the EC50 was 981 nM in data set [1], 1150 nM in data set [3] and 2570 nM in data set [6]. The half-life at 2 µM in “GI S9 stability” (human, s9, pH 7.4) was 0.0168 h. Besides, it took 27800 nM to reach half-maximal cytotoxicity in data set [4] (CC50). The “STA Human Plasma 37” value in “Plasma stability” amounted to 30.6.

With `CC(C)(C)COC(=O)OC[C@H]1O[C@@](C#N)(c2ccc3c(=N)n(COP(=O)(O)O)cnn23)[C@H](O)[C@@H]1O` [Compound 19, ((2R,3S,4R,5R)-5-cyano-3,4-dihydroxy-5-(4-imino-3-((phosphonooxy)methyl)-3,4-dihydropyrrolo[2,1-f][1,2,4]triazin-7-yl)tetrahydrofuran-2-yl)methyl neopentyl carbonate], the EC50 in data set [1] worked out at 5400 nM; in data set [3], 1240 nM; in data set [6], 7700 nM. In “GI S9 stability” (human, s9, pH 7.4), this compound showed a half-life at 2 µM of 0.457 h. Moreover, in data set [4], the CC50 was more than 50000 nM. In addition, the “STA Human Plasma 37” value in the data set “Plasma stability” was 1584.
